How the values were obtained:
[1] = molecular target: recombinant GST-Sir2 (Saccharomyces cerevisiae, UniProt P06700); test: Sir2 deacetylation assay; format: biochemical, S. cerevisiae
Experimental: Average lifespan for wild type, 22.9 generations, quercetin, 23.4; piceatannol.
His6-tagged recombinant SIRT1 and GST-tagged recombinant Sir2 were prepared as previously described^26. From 0.1 to 1 μg of SIRT1 and 1.5 μg of Sir2 were used per deacetylation assay (in 50 μl total reaction) as previously described^26. SIRT1 assays and certain of those for Sir2 employed the p53-382 acetylated substrate (‘Fluor de Lys-SIRT1’, BIOMOL) rather than FdL.
Themed compound libraries (BIOMOL) were used for primary and secondary screening. Most polyphenol compounds were dissolved at 10 mM in dimethylsulfoxide (DMSO) on the day of the assay. For water soluble compounds and negative controls, 1% v/v DMSO was added to the assay. In vitro fluorescence assay results were read in white ½-volume 96-well microplates (Corning Costar 3693) with a CytoFluor™ II fluorescence plate reader (PerSeptive Biosystems, Ex. 360 nm, Em. 460 nm, gain=85). HeLa cells were grown and the cellular deacetylation assays were performed and read, as above, but in full-volume 96-well microplates (Corning Costar 3595). […] Calculation of net fluorescence increases included subtraction of a blank value, which in the case of Sir2 was obtained by omitting the enzyme from the reaction and in the case of SIRT1 by adding an inhibitor (200 μM suramin or 1 mM nicotinamide) to the reaction prior to the acetylated substrate. […]

[2] = test system: ribosomal DNA recombination; test: Ribosomal DNA recombination assay (loss of ADE2 marker); format: cell-based, S. cerevisiae
[3] = test system: lysine 382 of p53; test: p53 K382 acetylation Western blot in UV-irradiated U2OS cells; format: cell-based, human
Experimental: FdL (200 μM) is added to growth media and cells incubated for 1-3 hours to allow FdL to enter the cells and the lysine-deacetylated product (deAc-FdL) to accumulate intracellularly. Cells are lysed with detergent in the presence of 1 μM TSA, 1 mM nicotinamide. […] Cells were grown adherently in DMEM/10% FCS and treated for 1 hour with 200 μM FdL, 1 μM TSA and either vehicle (0.5% final DMSO, Control) or 500 μM of the indicated compound. Intracellular accumulation of deAc-FdL was then determined as described briefly in a. […] Lysates were prepared and analyzed as above.
Whole cell extracts were prepared by lysing cells in buffer containing 150 mM NaCl, 1 mM MgCl2, 10% glycerol, 1% NP40, 1 mM DTT and anti-protease cocktail (Roche).

[4] = molecular target: recombinant dSir2 (Drosophila melanogaster, UniProt Q9VK34); test: dSir2 deacetylation assay (Fluor de Lys); format: biochemical, D. melanogaster; settings: dose-dependent; maximum
Sequence of recombinant dSir2 (Q9VK34 whole entry): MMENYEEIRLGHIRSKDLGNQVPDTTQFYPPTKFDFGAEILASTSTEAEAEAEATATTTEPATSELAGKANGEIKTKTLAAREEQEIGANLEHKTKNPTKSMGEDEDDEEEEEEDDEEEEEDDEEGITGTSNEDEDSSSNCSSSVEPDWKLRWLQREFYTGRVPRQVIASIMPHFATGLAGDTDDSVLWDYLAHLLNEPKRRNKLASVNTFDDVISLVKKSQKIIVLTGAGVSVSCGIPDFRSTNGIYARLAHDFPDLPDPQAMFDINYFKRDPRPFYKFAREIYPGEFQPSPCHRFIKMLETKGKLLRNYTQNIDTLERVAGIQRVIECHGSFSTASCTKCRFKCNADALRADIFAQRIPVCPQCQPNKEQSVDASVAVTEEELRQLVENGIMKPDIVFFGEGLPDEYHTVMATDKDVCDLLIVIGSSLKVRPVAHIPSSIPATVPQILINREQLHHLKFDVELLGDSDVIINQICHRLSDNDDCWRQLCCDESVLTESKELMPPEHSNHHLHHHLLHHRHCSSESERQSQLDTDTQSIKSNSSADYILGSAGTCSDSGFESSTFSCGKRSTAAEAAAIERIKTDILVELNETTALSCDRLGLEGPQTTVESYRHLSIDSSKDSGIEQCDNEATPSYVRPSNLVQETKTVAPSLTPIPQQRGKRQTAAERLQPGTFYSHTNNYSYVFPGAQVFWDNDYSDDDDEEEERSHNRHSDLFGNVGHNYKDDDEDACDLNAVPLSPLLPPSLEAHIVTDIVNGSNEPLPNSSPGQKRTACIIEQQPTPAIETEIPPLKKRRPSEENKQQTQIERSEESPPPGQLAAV
Experimental: From 0.1 to 1 μg of SIR-2.1 and 1 μg of dSir2 were used per deacetylation assay as previously described with modifications (SIR-2.1: 200 μM NAD^+, 10 μM Fluor de Lys, FdL; dSir2: 25 μM NAD^+, 10 μM FdL)^26. STACs were dissolved at 10 mM in dimethylsulfoxide (DMSO) the day of the assay. In vitro fluorescence assay results were read in 96-well microplates (Corning Costar 3693) with a Wallac Victor Multilabel counter (Perkin Elmer, excitation at 360 nm, emission at 450 nm). Drosophila S2 cells were grown in Schneider media with fetal calf serum at 23-28° C., seeded at 9×10^4 cells/well, grown overnight and then exposed to 1 μM TSA, 500 μM polyphenols, and 200 μM FdL for 2 hr. Deacetylation of FdL with lysate from whole cells was determined as described^4. Unless otherwise indicated all initial rate measurements were means of three or more replicates obtained with single incubation times, at which point 5% or less of the substrate initially present was deacetylated.

[5] = test system: D. melanogaster; test: D. melanogaster survival (lifespan) assay; format: in vivo
Experimental: Survival assays were conducted independently with adult D. melanogaster in two laboratories. In the first laboratory, all trials used an yw marked wild-type strain. Larvae were reared on standard cornmeal-sugar-yeast (CSY) agar diet (cornmeal 5%, sucrose 10.5%, SAF yeast 2%, and agar 0.7%). Newly eclosed adults were placed in 1 L demography cages with approximately 75 males and 75 females. Three to four replicate 1 L demography cages were used for each treatment group in each trial. Every two days, dead flies were removed and scored, and food vials were replenished. Food vials contained cornmeal-sugar-yeast diet with SAF yeast as either 2% or 3% by weight. Test compounds in 100 μl of EtOH (or blank EtOH in controls) were mixed into melted aliquots of the adult food media to make a final concentration of 0, 10 or 100 μM. Fresh stock solutions and adult media were prepared weekly. In the second laboratory, lifespan trials were conducted with the wild type strain Canton-S, dSir2^4.5 and dSir2^5.26 (S. Smolik, University of Oregon), dSir2^17 (S. Astrom, Stockholm University, Sweden), and dSir2^KG00871 (Drosophila Stock Center, Bloomington, Ind.). Larvae for all tests were reared on standard cornmeal-sugar-yeast diet. Newly eclosed adults were incubated in plastic shell vials containing 5 ml of 15% sugar-yeast diet (15% SY) or 5% sugar-yeast (5% SY) diet (15% SY: 15% yeast, 15% sucrose, 2% agar; 5% SY: 5% yeast, 5% sucrose, 2% agar as per Ref.^20). In all trials, ˜20 males with ˜20 females were placed into each of 10 vials/treatment group. Every two days, flies were passed into new vials and dead flies were counted. […] Final compound concentrations were 0, 10, 100 or 200 μM. Fresh stock solution and adult media was prepared weekly.

[6] = test system: C. elegans; test: C. elegans fat accumulation, Nile Red staining; format: in vivo
Experimental: Fat accumulation was visualized with Nile Red staining, as described further below and in Ashrafi K, et al. Nature 421:268-27 (2003).
Synchronized starved L1 worms were grown in the presence of Nile Red. Strains were grown on NGM plates at 25° C. for approximately 48 hours until the young adult stage was reached. 20-30 young adult worms were then washed 2× with M9 buffer and transferred to new NGM/Nile red experimental plates that contained either OP50 or HTT5 E. coli carrying the L4440 RNAi control vector.
Young adults were transferred to plates containing the appropriate vector, Nile Red stain and drug then maintained at 25° C.
Nile Red: Nile Red Powder (Sigma #N-3013) was dissolved in acetone at 500 μg/ml, diluted in 1× Phosphate Buffered Saline (PBS) including appropriate drug and applied to surface of Nematode Growth Media (NGM) plates previously seeded with OP50 or RNAi bacteria, at a final concentration of 0.05 μg/ml. Fat content was monitored and recorded by fluorescence microscopy.

[7] = test system: AMPK at Thr172 and ACC at serine 79; test: AMPK and ACC phosphorylation Western in CHO-HIR cells; format: cell-based
Experimental: Cells were harvested after 30 minutes and lysates were immediately boiled in SDS and subjected to Western analysis with site-specific antibodies. Phosphorylation of AMPK at Thr172 indicates activation of the kinase. Active AMPK phosphorylates and inactivates ACC at serine 79.

[8] = test system: phosphorylation of ACC; test: ACC phosphorylation Western in 3T3-L1 adipocytes; format: cell-based; settings: day 6 and day 10 of differentiation
Experimental: ACC was also phosphorylated when the cells were incubated in serum free media overnight before harvesting (lanes marked “SF”). The reason for the extra band in the SIRT1 blot at day 6 is unknown, but it may be a modified form of SIRT1. Tubulin served as a loading control.

Sequence of recombinant GST-Sir2 (P06700 whole entry): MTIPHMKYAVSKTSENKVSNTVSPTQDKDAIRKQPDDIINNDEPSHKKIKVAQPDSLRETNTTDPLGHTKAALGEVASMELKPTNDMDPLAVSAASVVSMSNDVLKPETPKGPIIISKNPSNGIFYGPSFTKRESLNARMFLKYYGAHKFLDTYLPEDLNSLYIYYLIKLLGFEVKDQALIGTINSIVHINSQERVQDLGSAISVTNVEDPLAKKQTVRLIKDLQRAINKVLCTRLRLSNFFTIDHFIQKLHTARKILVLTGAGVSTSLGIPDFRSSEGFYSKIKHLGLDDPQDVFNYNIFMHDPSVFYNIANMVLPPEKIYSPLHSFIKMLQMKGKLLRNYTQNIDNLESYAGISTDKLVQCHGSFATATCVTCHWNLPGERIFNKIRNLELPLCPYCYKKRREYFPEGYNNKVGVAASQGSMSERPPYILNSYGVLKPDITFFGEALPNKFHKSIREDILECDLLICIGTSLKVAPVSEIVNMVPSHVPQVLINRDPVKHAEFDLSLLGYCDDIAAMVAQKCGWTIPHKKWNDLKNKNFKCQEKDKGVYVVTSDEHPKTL

Q: For Oc1ccc(/C=C/c2cc(O)cc(O)c2)cc1 [Resveratrol, 3,5,4′-Trihydroxy-trans-stilbene], which “Concentrations at which inhibition was seen” value [1] is on record?
A: Its value is > 100 µM.

Q: What about the “Optimum concentration of activator” value [1] of the same compound?
A: Its value is 2 to 5 µM.

Q: And the “Effect on rDNA recombination” value ([2]; in the presence of the Sir2 inhibitor nicotinamide)?
A: The value was “decreased”.

Q: What about the “Effect on rDNA recombination” value ([2]; sir2 strain) of the same compound?
A: Its value is “does not suppress”.

Q: What about the “Level of Ac-K382” value ([3]; 0.5 μM resveratrol, 4 hours pre-treatment, UV radiation) of the same compound?
A: The value was “marked decrease”.

Q: What about the “Level of Ac-K382” value ([3]; higher concentrations of resveratrol (>50 μM)) of the same compound?
A: The value was “reversed”.

Q: What about the Stimulation of deacetylation [4] of the same compound?
A: Its Stimulation of deacetylation is ≤ 2.4 fold.

Q: And the Lifespan increase ([5]; Canton-S/dSir2 KG0087, maximum)?
A: Its Lifespan increase is “up to 17%”.

Q: And the “Lifespan extension (in words)” value ([5]; dSir2 4.5/5.26 (no functional dSir2) or dSir2 17/KG00871 (severely decreased), 100 μM)?
A: Its value is “failed to extend lifespan”.

Q: What about the “Increase of longevity (in words)” value ([5]; flies homozygous for a hypomorphic dSir2 allele) of the same compound?
A: The value was “small but statistically significant amount”.

Q: What about the “Longevity under restricted diet” value ([5]; restricted diet) of the same compound?
A: The value was “neither resveratrol nor fisetin further increased longevity”.

Q: What about the Lifespan extension ([5]; wild type strains, males and females, independent tests, maximum) of the same compound?
A: The Lifespan extension was “up to 29%”.

Q: And the Fat staining ([6]; 100 μM, 48 hours, control 2.5% v/v DMSO)?
A: Its Fat staining is “Significant reduction”.

Q: What about the Fat mobilization ([6]; DAF-16 mutant worms (mgDf47)) of the same compound?
A: Its Fat mobilization is “stimulates fat mobilization”.

Q: And the Fat mobilization ([6]; RNA inactivation of TOC1.8 (AMPK) or F41E7.3 (COT))?
A: Its Fat mobilization is “blocks resveratrol-stimulated fat mobilization”.

Q: What about the Fat mobilization ([6]; Sir2.1 RNAi) of the same compound?
A: The Fat mobilization was “did not show resveratrol induced fat mobilization”.

Q: What about the “Reduction of fat content” value ([6]; normal worms, RNAi vector alone) of the same compound?
A: The value was 75%.

Q: And the “Fat accumulation (in words)” value ([6]; wild-type N2, 10 μM or 50 μM)?
A: Its value is “marked decrease”.

Q: And the “Reduction of fat accumulation” value ([6]; wild-type N2, 100 μM, overnight)?
A: The value was 90%.

Q: And the “Activation of AMPK” value ([7]; 100 nM to 50 μM resveratrol, increasing concentrations)?
A: The value was “activation of AMPK”.

Q: And the “Phosphorylation of AMPK and ACC” value ([7]; AICAR 500 μM, resveratrol 12.5, 25 or 50 μM, 30 minutes)?
A: Its value is “stimulates phosphorylation of AMPK and ACC”.

Q: And the “Phosphorylation of ACC” value [8]?
A: The value was “stimulated the phosphorylation of ACC”.

Source: patent US20060276416A1, “Methods and compositions for treating flushing and drug induced weight gain” (Sirtris Pharmaceuticals, Inc., priority 2005, published 2006)
